Assay results from ChEMBL document CHEMBL3352775, “Identification of substituted 3-hydroxy-2-mercaptocyclohex-2-enones as potent inhibitors of human lactate dehydrogenase” (Bioorg Med Chem Lett, 2014).
Converted amounts (≈) assume the structure as drawn.

Columns and labels:
[1] = molecular target: T1, L-lactate dehydrogenase A chain (Homo sapiens, UniProt P00338); assay: Inhibition of human recombinant carboxy-terminal His-tagged LDHA by SPR assay in presence of +NADH
[2] = molecular target: T1, L-lactate dehydrogenase A chain; assay: Inhibition of human recombinant carboxy-terminal His-tagged LDHA by UV endpoint assay
[3] = molecular target: T1, L-lactate dehydrogenase A chain; assay: Inhibition of human recombinant carboxy-terminal His-tagged LDHA by SPR assay
[4] = Dissociation constant, pKa of the compound; format: physicochemical
[5] = molecular target: T1, L-lactate dehydrogenase A chain; assay: Inhibition of human recombinant carboxy-terminal His-tagged LDHA by MS endpoint assay
Cytochrome P450 2D6 = Cytochrome P450 2D6 (Homo sapiens, UniProt P10635); assay: Inhibition of CYP2D6 (unknown origin); format: ADME
Chain of Cytochrome P450 2D6 (P10635 whole entry): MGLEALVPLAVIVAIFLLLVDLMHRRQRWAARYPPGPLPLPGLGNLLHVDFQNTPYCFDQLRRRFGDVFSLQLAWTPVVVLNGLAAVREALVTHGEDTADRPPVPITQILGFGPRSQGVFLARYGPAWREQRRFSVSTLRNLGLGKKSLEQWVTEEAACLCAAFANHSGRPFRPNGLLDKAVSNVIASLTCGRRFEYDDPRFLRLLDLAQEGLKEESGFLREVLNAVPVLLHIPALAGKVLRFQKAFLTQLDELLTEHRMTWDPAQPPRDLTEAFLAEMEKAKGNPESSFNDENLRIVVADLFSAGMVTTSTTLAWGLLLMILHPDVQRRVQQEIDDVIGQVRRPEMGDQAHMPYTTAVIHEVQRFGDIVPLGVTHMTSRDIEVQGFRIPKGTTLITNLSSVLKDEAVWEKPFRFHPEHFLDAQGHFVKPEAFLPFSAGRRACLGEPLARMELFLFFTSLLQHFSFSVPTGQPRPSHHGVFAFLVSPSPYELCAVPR

Cytochrome P450 1A2 = molecular target: T2, Cytochrome P450 1A2 (Homo sapiens, UniProt P05177); assay: Inhibition of CYP1A2 (unknown origin); format: ADME
T2 sequence (P05177 whole entry): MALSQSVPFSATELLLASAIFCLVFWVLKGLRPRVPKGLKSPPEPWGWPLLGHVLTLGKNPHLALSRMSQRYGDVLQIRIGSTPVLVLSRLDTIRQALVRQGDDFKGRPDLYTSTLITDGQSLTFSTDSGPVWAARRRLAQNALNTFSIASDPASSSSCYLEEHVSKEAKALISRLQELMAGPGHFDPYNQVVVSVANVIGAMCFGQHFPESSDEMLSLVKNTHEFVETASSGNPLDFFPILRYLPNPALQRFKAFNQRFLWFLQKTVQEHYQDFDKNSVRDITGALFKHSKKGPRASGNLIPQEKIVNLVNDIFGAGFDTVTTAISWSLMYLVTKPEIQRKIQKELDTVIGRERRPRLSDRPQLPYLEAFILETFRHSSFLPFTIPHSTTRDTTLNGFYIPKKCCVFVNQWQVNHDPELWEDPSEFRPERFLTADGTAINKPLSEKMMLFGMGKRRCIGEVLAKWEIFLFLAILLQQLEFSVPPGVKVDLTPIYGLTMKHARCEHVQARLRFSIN

[6] = Fraction unbound in human plasma by LC-MS/MS analysis; format: ADME, cell-free
[7] = Fraction unbound in rat plasma by LC-MS/MS analysis; format: ADME, cell-free
Cytochrome P450 2C9 = Cytochrome P450 2C9 (Homo sapiens, UniProt P11712); assay: Inhibition of CYP2C9 (unknown origin); format: ADME
Chain of Cytochrome P450 2C9 (P11712 whole entry): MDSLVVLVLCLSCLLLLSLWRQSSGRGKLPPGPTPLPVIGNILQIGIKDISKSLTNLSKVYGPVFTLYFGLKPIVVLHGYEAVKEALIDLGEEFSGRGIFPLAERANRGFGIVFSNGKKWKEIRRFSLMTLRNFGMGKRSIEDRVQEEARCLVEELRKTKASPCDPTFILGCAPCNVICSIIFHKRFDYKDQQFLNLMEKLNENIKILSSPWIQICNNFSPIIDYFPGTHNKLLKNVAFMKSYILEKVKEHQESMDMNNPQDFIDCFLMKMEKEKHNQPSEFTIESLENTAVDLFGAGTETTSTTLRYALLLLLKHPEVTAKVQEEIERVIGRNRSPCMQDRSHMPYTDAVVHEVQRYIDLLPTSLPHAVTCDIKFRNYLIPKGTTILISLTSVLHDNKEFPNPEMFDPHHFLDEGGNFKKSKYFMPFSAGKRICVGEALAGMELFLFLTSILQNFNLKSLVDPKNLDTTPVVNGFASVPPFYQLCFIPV

[8] = Aqueous solubility of the compound in PBS buffer at pH 7.2; format: physicochemical
[9] = Apparent permeability from apical to basolateral side in MDCK cells at 2 uM by LC-MS/MS analysis; format: ADME, cell-based, Canis lupus familiaris; conditions: dog
[10] = Clearance in Sprague-Dawley rat liver microsomes at 1 uM up to 60 mins by LC-MS/MS analysis; format: ADME
Cytochrome P450 3A4 = Cytochrome P450 3A4 (Homo sapiens, UniProt P08684); assay: Inhibition of CYP3A4 (unknown origin); format: ADME
Chain of Cytochrome P450 3A4 (P08684 whole entry): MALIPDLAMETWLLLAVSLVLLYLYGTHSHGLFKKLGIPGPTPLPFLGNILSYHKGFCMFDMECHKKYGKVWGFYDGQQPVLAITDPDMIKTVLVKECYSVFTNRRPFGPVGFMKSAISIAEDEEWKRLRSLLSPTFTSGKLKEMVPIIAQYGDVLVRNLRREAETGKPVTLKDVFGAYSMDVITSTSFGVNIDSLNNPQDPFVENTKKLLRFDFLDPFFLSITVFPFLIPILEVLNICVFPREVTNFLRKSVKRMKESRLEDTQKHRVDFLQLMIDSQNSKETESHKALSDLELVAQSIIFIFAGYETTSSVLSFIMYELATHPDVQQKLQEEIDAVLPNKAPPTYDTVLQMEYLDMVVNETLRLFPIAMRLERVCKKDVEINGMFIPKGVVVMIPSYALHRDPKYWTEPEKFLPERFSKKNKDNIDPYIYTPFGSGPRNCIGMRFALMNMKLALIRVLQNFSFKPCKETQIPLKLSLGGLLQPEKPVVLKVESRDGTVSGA

[11] = Clearance in human liver microsomes at 1 uM up to 60 mins by LC-MS/MS analysis; format: ADME
[12] = molecular target: L-lactate dehydrogenase B chain (Homo sapiens, UniProt P07195)
Chain of L-lactate dehydrogenase B chain (P07195 whole entry): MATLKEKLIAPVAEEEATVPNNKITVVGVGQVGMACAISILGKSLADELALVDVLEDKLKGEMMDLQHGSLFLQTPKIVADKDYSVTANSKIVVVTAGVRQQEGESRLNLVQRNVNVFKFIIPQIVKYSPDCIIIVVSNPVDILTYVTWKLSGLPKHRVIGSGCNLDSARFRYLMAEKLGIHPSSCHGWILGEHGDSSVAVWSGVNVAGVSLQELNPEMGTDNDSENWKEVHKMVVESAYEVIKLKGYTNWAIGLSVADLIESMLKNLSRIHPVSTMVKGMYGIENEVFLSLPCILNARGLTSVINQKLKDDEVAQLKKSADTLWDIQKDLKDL
Description: Inhibition of human recombinant carboxy-terminal His-tagged LDHB by UV endpoint assay

[13] = AUC (0 to 24 hrs) in Sprague-Dawley rat at 0.5 mg/kg, iv; format: ADME, organism-based; design: time < 24 hr, dose 0.5 mg/kg, route intravenous; conditions: plasma
[14] = Volume of distribution at steady state in Sprague-Dawley rat at 0.5 mg/kg, iv; format: ADME, organism-based; design: dose 0.5 mg/kg, route intravenous; conditions: in vivo, read-out: Vdss
[15] = Oral bioavailability in Sprague-Dawley rat plasma at 2 mg/kg; format: ADME, organism-based
[16] = Clearance in Sprague-Dawley rat plasma at 0.5 mg/kg, iv by LC-MS/MS analysis; format: ADME, organism-based; design: dose 0.5 mg/kg, route intravenous
[17] = molecular target: T3, Malate dehydrogenase, mitochondrial (Homo sapiens, UniProt P40926); assay: Inhibition of human recombinant carboxy-terminal His-tagged MDH-2
T3 sequence (P40926 whole entry): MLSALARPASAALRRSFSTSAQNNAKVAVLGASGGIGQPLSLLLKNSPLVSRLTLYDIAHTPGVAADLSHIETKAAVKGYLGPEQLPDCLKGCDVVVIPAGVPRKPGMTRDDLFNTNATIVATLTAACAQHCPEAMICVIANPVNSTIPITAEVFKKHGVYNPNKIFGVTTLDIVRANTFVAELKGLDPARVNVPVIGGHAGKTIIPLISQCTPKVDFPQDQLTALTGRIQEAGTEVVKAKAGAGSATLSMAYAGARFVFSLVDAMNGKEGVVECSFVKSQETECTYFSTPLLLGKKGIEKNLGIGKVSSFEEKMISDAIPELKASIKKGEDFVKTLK

[18] = AUC (0 to 24 hrs) in Sprague-Dawley rat at 2 mg/kg, po; format: ADME, organism-based; design: time < 24 hr, dose 2 mg/kg, route oral; conditions: plasma
[19] = molecular target: T4, Malate dehydrogenase, cytoplasmic (Homo sapiens, UniProt P40925); assay: Inhibition of human recombinant carboxy-terminal His-tagged MDH-1
T4 sequence (P40925 whole entry): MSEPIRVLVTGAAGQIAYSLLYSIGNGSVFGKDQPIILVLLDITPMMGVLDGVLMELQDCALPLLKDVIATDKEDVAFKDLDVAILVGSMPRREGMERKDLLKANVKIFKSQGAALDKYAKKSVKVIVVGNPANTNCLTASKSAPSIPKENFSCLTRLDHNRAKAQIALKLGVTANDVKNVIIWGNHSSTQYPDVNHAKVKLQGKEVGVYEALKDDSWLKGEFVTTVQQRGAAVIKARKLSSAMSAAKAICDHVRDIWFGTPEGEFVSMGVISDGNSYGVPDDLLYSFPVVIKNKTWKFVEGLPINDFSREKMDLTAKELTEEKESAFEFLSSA

[20] = Half life in Sprague-Dawley rat plasma at 2 mg/kg, po; format: ADME, organism-based; design: dose 2 mg/kg, route oral
[21] = Half life in Sprague-Dawley rat plasma at 0.5 mg/kg, iv; format: ADME, organism-based; design: dose 0.5 mg/kg, route intravenous

SMILES | IC50 [2] [µM] | Kd [3] [µM] | IC50 (Cytochrome P450 2D6) [µM] | IC50 (Cytochrome P450 1A2) [µM] | fraction unbound [6] | fraction unbound [7] | IC50 (Cytochrome P450 2C9) [µM] | solubility [8] [µM] | Papp A→B at 2 µM [9] [×10⁻⁶ cm/s] | CLhep predicted at 1 µM [10] [mL/min/kg] | IC50 (Cytochrome P450 3A4) [µM] | CLhep predicted at 1 µM [11] [mL/min/kg] | IC50 [12] [µM] | also measured
O=C1CC(c2ccccc2)CC(O)=C1Sc1ccccc1[N+](=O)[O-] (configuration not stated) | 1.7 | 771 |  |  |  |  |  |  |  |  |  |  |  | Kd [1]: 3.5 µM; pKa [4]: 2.63; IC50 [5]: 0.88 µM
N#Cc1ccccc1SC1=C(O)CC(c2ccccc2)CC1=O (configuration not stated) | 1.6 | 1.5 | > 5 | > 5 | 0.001 | 0.01 | > 5 | 118 (≈ 37.9 µg/mL) | 4.1 | 5.2 | > 5 | 1.6 |  | 
N#Cc1ccccc1SC1=C(O)CC(c2c(Cl)cccc2Br)CC1=O (configuration not stated) | 0.45 | 0.24 | > 5 | > 5 | 0.002 | 0.005 | > 5 | 75 (≈ 32.6 µg/mL) | 14 | 31 | > 5 | 15 | 2 | 
O=C1CC(c2c(C(F)(F)F)cccc2C(F)(F)F)CC(O)=C1Sc1ccccc1Cl (configuration not stated) | 15 |  | > 5 | > 5 |  |  | > 5 | 143 (≈ 66.8 µg/mL) |  | 38 | > 5 | 18 | 7.4 | 
O=C1CC(c2c(Cl)cccc2Br)CC(O)=C1Sc1ccccc1Cl (configuration not stated) | 0.58 | 0.49 |  |  |  |  |  |  |  |  |  |  | 3.4 | 
O=C1CC(c2cccc(Cl)c2)CC(O)=C1Sc1ccccc1Cl (configuration not stated) | 5.6 | 7.1 |  |  |  |  |  |  |  |  |  |  |  | 
O=C1CC(c2c(Cl)cccc2Cl)CC(O)=C1Sc1ccccc1Cl (configuration not stated) | 0.87 | 1.8 | > 5 | > 5 | 0.005 | 0.002 | > 5 | 128 (≈ 51.2 µg/mL) | 17 | 27 | > 5 | 14 |  | AUC(0-t) at 24 h [13]: 60.3 µM·h; Vd [14]: 0.39 L; bioavailability [15]: 45%; clearance [16]: 0.35 mL/min/kg; IC50 [17]: > 100 µM; AUC(0-t) at 24 h [18]: 142 µM·h; IC50 [19]: > 100 µM; half-life [20]: 10.7 h; half-life [21]: 13.2 h
O=C1CC(c2ccccc2)CC(O)=C1Sc1ccccc1Cl (configuration not stated) | 4.6 | 4.3 | > 5 | > 5 | 0.001 | 0.002 | > 5 | 147 (≈ 48.6 µg/mL) | 18 | 14 | > 5 | 3.9 |  | 
COc1ccc(C2CC(=O)C(Sc3ccccc3Cl)=C(O)C2)cc1 (configuration not stated) | 19 | 13 |  |  |  |  |  |  |  |  |  |  | 6.9 | 
N#Cc1ccccc1SC1=C(O)CC(c2c(Cl)cccc2Cl)CC1=O (configuration not stated) | 0.83 | 0.43 | > 5 | > 5 |  |  | > 5 | 117 (≈ 45.7 µg/mL) |  | 24 | > 5 | 12 | 4.9 | 
O=C1CC(c2c(Cl)ccc(Br)c2Cl)CC(O)=C1Sc1ccccc1Cl (configuration not stated) | 0.5 | 0.37 |  |  |  |  |  |  |  |  |  |  | > 10 | 
O=C1CC(c2c(Cl)cccc2C(F)(F)F)CC(O)=C1Sc1ccccc1Cl (configuration not stated) | 1 | 0.5 | > 5 | > 5 |  |  | > 5 | 117 (≈ 50.7 µg/mL) |  | 37 | > 5 | 17 |  | 
